# Test results as given in paper PMC12567096, “An Efficacy- and In Vivo Exposure-Oriented Integrated Study to Investigate the Effective Components of Qishen Granule” (Pharmaceuticals, 2025).
# Key:
# [1] = Concentrations of 24 analytes in QSG treated plasma (Table S5); conditions: for Concentration: QSG treated plasma, n = 5; for concentration at 0.08 h / concentration at 0.17 h / concentration at 0.5 h / concentration at 1 h / concentration at 2 h / concentration at 4 h / concentration at 8 h / concentration at 12 h: Sprague Dawley, rat, plasma, oral, 7 g/kg
# [2] = Pharmacokinetic study in rats after oral administration of QSG; conditions: for AUCi: exposure (AUC0→∞) of the component in rats after oral QSG, as used for ECI; for Oral relative bioavailability: exposure level (AUC0→∞) compared with the dosage of each compound in QSG; for Absorption efficiency / bioavailability (in words): from Table S12, rats; for Shape of the plasma concentration–time curve (in words): rats; for AUC(0-inf): AUC0→∞
# Protocol: Ion source parameters were set as follows: temperatures of drying gas and sheath gas were 300 °C and 300 °C, flow rates of drying gas and sheath gas were 7 L/min and 11 L/min, the nebulizer was set at 35 psig, capillary voltage was 3500 V (−), and nozzle voltage was 2000 V (−). […] Chromatographic separations were conducted on a ZORBAX Eclipse Plus C18 column (3.0 × 50 mm, 1.8 μm, Agilent Technologies, California, USA). The mobile phase was composed of 0.1% aqueous FA (A, (v/v)) and 0.1% formic acid methanol (B), the flow rate was set at 0.5 mL/min, and the column oven was maintained at 40 °C.
# Protein precipitation was carried out for each time point for plasma samples, calibration samples, or QC samples by introducing four volumes of acetonitrile containing 400 ng/mL of icariin. Then, 10 μL 10% aqueous ascorbic acid (v/v) was spiked into each sample to prevent the oxidation of phenolic compounds. […] An aliquot (450 μL) of the supernatant was transferred and dried under nitrogen vacuum.
# The pharmacokinetic parameters were calculated by DAS software (version 2.0) for a non-compartmental analysis.
# [3] = tested on: H9c2 cells; test: Cytotoxicity on H9c2 cells (CCK-8); type: cell-based, rat; conditions: for Inhibition rate / inhibition at 25 µM / inhibition at 50 µM / inhibition at 100 µM: H9c2 cells, n=3; for inhibition at 25 µM / inhibition at 50 µM / inhibition at 100 µM: Rattus norvegicus, read-out: Inhibition rate; for Effect on H9c2 cell viability / cytotoxicity (in words): CCK-8, compared to the control group
# Protocol: (§1) Rat myocardial H9c2 cells (purchased from China Infrastructure of Cell Line Resources, Institute of Basic Medical Sciences, Chinese Academy of Medical Sciences) were cultured in DMEM supplemented with 10% fetal bovine serum (FBS), Penicillin (100 U/mL), and Streptomycin (100 μg/mL) at 37 °C under a humidified atmosphere of 5% CO2 and 95% air. For OGD/R treatment, H9c2 cells were cultured in glucose-free DMEM under hypoxic conditions (95%N2 + 5%CO2) for 4 h at 37 °C followed by complete medium under normal conditions with air (95%) and CO2 (5%) for 2 h. A control group was maintained under normal culture conditions (with glucose-containing DMEM and 5% CO2) without undergoing OGD/R treatment. CCK8 was used to assess cell viability. After treatment, H9c2 cells were seeded in 96-well plates, with each well supplemented with 10 μL of CCK-8 solution and then incubated for 1 h. Finally, the absorbance at 450 nm was detected by a microplate reader (Model […] 200 PRO, TECAN, Grodig, Austria).
# When evaluating the cytotoxicities of the absorbed compounds, the H9c2 cells were seeded in 96-well plates at a density of 1 × 10^4 cells/well; when cells reached 80% confluence, […] Afterward, the protective effects were verified by assessing the cell viability when treating with different concentrations (1, 10, 25, 50, and 100 μM) of the analytes prior to OGD/R treatment.
# [4] = tested on: OGD/R-induced H9c2 cells; test: Protective effect on OGD/R-induced H9c2 cells (CCK-8 cell viability); type: cell-based, rat; conditions: for H9c2 cell survival after OGD/R (in words): 1, 10, 25, 50 and 100 μM prior to OGD/R, vs model group; for Protective effects on OGD/R-induced H9c2 cells (in words): at 50 and 100 μM; for EC50: protective effect against OGD/R injury, H9c2 cell viability
# Protocol: as §1
# When evaluating the cytotoxicities of the absorbed compounds, the H9c2 cells were seeded in 96-well plates at a density of 1 × 10^4 cells/well; when cells reached 80% confluence, they were treated with 25 and 50 μM of the 24 analytes to screen the non-toxic concentration ranges. Afterward, the protective effects were verified by assessing the cell viability when treating with different concentrations (1, 10, 25, 50, and 100 μM) of the analytes prior to OGD/R treatment.
# [5] = rat plasma, single oral 7 g/kg QSG, n = 6
# [6] = Sprague Dawley, rat, plasma, po, 7 g/kg
# [7] = Sprague Dawley, rat, plasma, po, 7 g/kg, rat plasma, single oral 7 g/kg QSG, n = 6
structure (smiles),measurement,setting,value
CC(C)(O)[C@@H]1CC[C@](C)([C@H]2[C@@H](O)C[C@@]3(C)[C@@H]4C[C@H](O[C@@H]5O[C@H](CO)[C@@H](O)[C@H](O)[C@H]5O)[C@H]5C(C)(C)[C@@H](O[C@@H]6OC[C@@H](O)[C@H](O)[C@H]6O)CC[C@@]56C[C@@]46CC[C@]23C)O1 [Astragaloside IV],Concentration,[1]; 0.17 h,7.10 ± 5.941 ng/mL
same,Concentration,[1]; 0.5 h,8.655 ± 2.757 ng/mL
same,Concentration,[1]; 1 h,3.017 ± 3.507 ng/mL
same,Concentration,[1]; 2 h,3.783 ± 2.015 ng/mL
same,Concentration,[1]; 4 h,0.710 ± 1.991 ng/mL
same,Concentration,[1]; 8 h,1.337 ± 1.728 ng/mL
same,Concentration,[1]; 12 h,2.200 ± 2.015 ng/mL
same,AUC0→∞,"[2]; Table S12, rats, oral QSG",144.9 ng·h/mL
same,AUCi,[2],144.9
same,Oral relative bioavailability,[2],0.107%
same,Absorption efficiency / bioavailability (in words),[2]; oral QSG,relatively higher absorption efficiency
same,AUC0→t,[2]; [5],55.94 ± 26.16 ng·h/mL
same,AUC0→∞,[2]; [5],144.9 ± 101.2 ng·h/mL
same,Cmax,[2]; [5],12.06 ± 2.010 ng/mL
same,MRT,[2]; [5],6.104 ± 3.716 h
same,T1/2,[2]; [5],14.87 ± 9.060 h
same,Tmax,[2]; [5],0.250 ± 0.0920 h
same,Shape of the plasma concentration–time curve (in words),[2]; oral QSG,Double peaks
same,Inhibition rate,[3]; 25 μM,-6.7 ± 7.1%
same,Inhibition rate,[3]; 50 μM,7.0 ± 2.1%
same,Inhibition rate,[3]; 100 μM,15.0 ± 2.3%
same,H9c2 cell survival after OGD/R (in words),[4],significantly improve H9c2 cell survival rates
same,Protective effects on OGD/R-induced H9c2 cells (in words),[4],significant protective effects
O=C(/C=C/c1ccc(O)c(O)c1)O[C@@H]1C[C@](O)(C(=O)O)C[C@@H](O)[C@H]1O [Chlorogenic acid],concentration at 0.08 h,[1],66.2 ± 20.1 ng/mL
same,concentration at 0.17 h,[1],99.06 ± 0.162 ng/mL
same,concentration at 0.5 h,[1],395 ± 7.1 ng/mL
same,concentration at 1 h,[1],170 ± 35.7 ng/mL
same,concentration at 2 h,[1],77.2 ± 7.26 ng/mL
same,concentration at 4 h,[1],68.1 ± 21 ng/mL
same,concentration at 8 h,[1],51.4 ± 5.49 ng/mL
same,concentration at 12 h,[1],39.1 ± 14.9 ng/mL
same,AUC,[2]; [6],1420 ng·h/mL
same,MRT,[2]; [6],7.18 ± 0.978 h
same,Tmax,[2]; [6],0.563 ± 0.125 h
same,half-life,[2]; [6],9.22 ± 3.27 h
same,AUC(0-inf),[2]; [7],1420 ± 243 ng·h/mL
same,AUC0→t,[2]; [5],1278 ± 171.4 ng·h/mL
same,Cmax,[2]; [5],394.1 ± 6.271 ng/mL
same,inhibition at 25 µM,[3]; 25 μM,-1.6 ± 4.9%
same,inhibition at 50 µM,[3]; 50 μM,12 ± 1.7%
same,inhibition at 100 µM,[3]; 100 μM,15 ± 4.1%
same,H9c2 cell survival after OGD/R (in words),[4],significantly improve H9c2 cell survival rates
same,EC50,[4]; Rattus norvegicus,8.6 µM
O=C(/C=C/c1ccc(O)c(O)c1)O[C@H]1[C@H](O)C[C@](O)(C(=O)O)C[C@H]1O [Cryptochlorogenic acid],Concentration,[1]; 0.08 h,17.855 ± 11.504 ng/mL
same,Concentration,[1]; 0.17 h,95.627 ± 23.461 ng/mL
same,Concentration,[1]; 0.5 h,135.955 ± 20.918 ng/mL
same,Concentration,[1]; 1 h,54.572 ± 22.599 ng/mL
same,Concentration,[1]; 2 h,29.505 ± 18.460 ng/mL
same,Concentration,[1]; 4 h,18.424 ± 6.281 ng/mL
same,Concentration,[1]; 8 h,21.857 ± 6.099 ng/mL
same,Concentration,[1]; 12 h,12.189 ± 3.932 ng/mL
same,AUC0→∞,"[2]; Table S12, rats, oral QSG",576.2 ng·h/mL
same,AUCi,[2],576.2
same,Oral relative bioavailability,[2],0.026%
same,Absorption efficiency / bioavailability (in words),[2]; oral QSG,relatively higher absorption rates
same,AUC0→t,[2]; [5],532.2 ± 41.45 ng·h/mL
same,AUC0→∞,[2]; [5],576.2 ± 58.15 ng·h/mL
same,Cmax,[2]; [5],184.1 ± 57.43 ng/mL
same,MRT,[2]; [5],8.933 ± 0.5290 h
same,T1/2,[2]; [5],10.84 ± 2.625 h
same,Tmax,[2]; [5],0.364 ± 0.076 h
same,Inhibition rate,[3]; 25 μM,-16.2 ± 4.2%
same,Inhibition rate,[3]; 50 μM,-3.4 ± 0.2%
same,Inhibition rate,[3]; 100 μM,5.2 ± 0.4%
same,Effect on H9c2 cell viability / cytotoxicity (in words),[3],significantly enhanced cell viabilities
same,H9c2 cell survival after OGD/R (in words),[4],significantly improve H9c2 cell survival rates
same,EC50,[4],1.13 µM
COc1ccc(-c2coc3cc(O)ccc3c2=O)cc1 [Formononetin],concentration at 0.08 h,[1],0.74 ± 0.932 ng/mL
same,concentration at 0.17 h,[1],2.81 ± 1.24 ng/mL
same,concentration at 0.5 h,[1],4.23 ± 0.976 ng/mL
same,concentration at 1 h,[1],2.77 ± 1.06 ng/mL
same,concentration at 2 h,[1],1.45 ± 0.436 ng/mL
same,concentration at 4 h,[1],1.03 ± 0.395 ng/mL
same,concentration at 8 h,[1],0.656 ± 0.349 ng/mL
same,concentration at 12 h,[1],0.289 ± 0.213 ng/mL
same,AUC,[2]; [6],27.7 ng·h/mL
same,AUC(0-t),[2]; [6],18.5 ± 5.01 ng·h/mL
same,Cmax,[2]; [6],4.31 ± 0.952 ng/mL
same,MRT,[2]; [6],6.79 ± 4.77 h
same,Tmax,[2]; [6],0.516 ± 0.15 h
same,half-life,[2]; [6],10.9 ± 9.19 h
same,AUC(0-inf),"[2]; Sprague Dawley, rat, plasma, po, 7 g/kg, Table S12, rats, oral QSG",27.7 ng·h/mL
same,AUC(0-inf),[2]; [7],27.7 ± 12.2 ng·h/mL
same,Oral relative bioavailability,[2],0.033%
same,inhibition at 25 µM,[3]; 25 μM,10.7 ± 4.5%
same,inhibition at 50 µM,[3]; 50 μM,10.8 ± 5.2%
same,inhibition at 100 µM,[3]; 100 μM,13.5 ± 2.2%
same,H9c2 cell survival after OGD/R (in words),[4],significantly improve H9c2 cell survival rates
same,EC50,[4]; Rattus norvegicus,65 µM
same,Protective effects on OGD/R-induced H9c2 cells (in words),[4],significant protective effects
O=C(/C=C/c1ccc(O)c(O)c1)O[C@H]1[C@H](O)C[C@](O)(C(=O)O)C[C@H]1OC(=O)/C=C/c1ccc(O)c(O)c1 [Isochlorogenic acid C],Concentration,[1]; 0.08 h,12.829 ± 7.386 ng/mL
same,Concentration,[1]; 0.17 h,23.904 ± 9.523 ng/mL
same,Concentration,[1]; 0.5 h,18.491 ± 8.090 ng/mL
same,Concentration,[1]; 1 h,11.005 ± 7.334 ng/mL
same,Concentration,[1]; 2 h,7.777 ± 3.293 ng/mL
same,Concentration,[1]; 4 h,2.637 ± 2.154 ng/mL
same,Concentration,[1]; 8 h,7.703 ± 2.363 ng/mL
same,Concentration,[1]; 12 h,1.848 ± 1.625 ng/mL
same,AUC0→∞,"[2]; Table S12, rats, oral QSG",170.5 ng·h/mL
same,AUCi,[2],170.5
same,Oral relative bioavailability,[2],0.008%
same,Absorption efficiency / bioavailability (in words),[2]; oral QSG,less readily absorbed
same,AUC0→t,[2]; [5],116.3 ± 39.63 ng·h/mL
same,AUC0→∞,[2]; [5],170.5 ± 80.02 ng·h/mL
same,Cmax,[2]; [5],33.95 ± 8.980 ng/mL
same,MRT,[2]; [5],8.361 ± 4.800 h
same,T1/2,[2]; [5],16.43 ± 14.14 h
same,Tmax,[2]; [5],0.334 ± 0.165 h
same,Shape of the plasma concentration–time curve (in words),[2]; oral QSG,Double peaks
same,Inhibition rate,[3]; 25 μM,-11.8 ± 6.3%
same,Inhibition rate,[3]; 50 μM,-16.6 ± 1.3%
same,Inhibition rate,[3]; 100 μM,-6.3 ± 2.3%
same,Effect on H9c2 cell viability / cytotoxicity (in words),[3],significantly enhanced cell viabilities
same,H9c2 cell survival after OGD/R (in words),[4],significantly improve H9c2 cell survival rates
same,EC50,[4],1.09 µM
O=C(/C=C/c1ccc(O)c(O)c1)O[C@@H]1C[C@@](O)(C(=O)O)C[C@@H](O)[C@@H]1O [Neochlorogenic acid],AUC0→∞,"[2]; Table S12, rats, oral QSG",1418 ng·h/mL
same,AUC0→t,[2]; [5],167.1 ± 68.93 ng·h/mL
same,Cmax,[2]; [5],68.12 ± 4.044 ng/mL
same,MRT,[2]; [5],6.104 ± 2.911 h
same,Tmax,[2]; [5],0.398 ± 0.093 h
same,Inhibition rate,[3]; 25 μM,-12.8 ± 1.3%
same,Inhibition rate,[3]; 50 μM,3.8 ± 2.2%
same,Inhibition rate,[3]; 100 μM,5.7 ± 2.3%
same,H9c2 cell survival after OGD/R (in words),[4],significantly improve H9c2 cell survival rates
